Experiments:
[1] = Particle size before and after micronization, HELOS measurement (Example 15); assay type: physicochemical; conditions: for Particle size X50 after micronization / Particle size X90 after micronization: after micronization by Jet mill or ball mill without surfactant
Procedure: (§1) The dissolution test was carried out according to the paddle method of Korean Phramacopeia. The paddle rate was 75 rpm, the temperature of an effluent was 37° C., and a test solution was a mixture solution of pH 6.8, 1.5% Tween 80. First, the test solution was filtered through a […] Membrane filter and centrifuged. Supernatant fluid was taken, and the content of drug was analyzed by HPLC, and the amount of released drug was measured at different time points. The drugs used for the dissolution test are Compounds 1, 5, 44 and 51 provided in Table 1, and the extract set forth in the Korean Patent No. 10-818586 which contains Compound 58 over 60 wt % (‘Compound 58 Extract’). Microparticulation was carried out using Jet mill or ball mill without any surfactant. The particle size of compounds was determined by HELOS measurement.
Measurement of the particle size was carried out by putting approximately 3 ml of a sample into a cell for particle size measurement and measuring the particle size during 60 seconds per sample. The particle sizes before and after micronization are provided below.

[2] = Dissolution test, paddle method (Example 15); assay type: physicochemical; conditions: for Increasing rate of dissolution rate of 12 hours: after versus before microparticulation; for Change of dissolution rate of micronized particles compared to before micronization: different time points, FIGS. 3 to 6, pH 6.8, 1.5% Tween 80, 37° C.; for Dissolution rate of 12 hours after microparticulation / Dissolution rate of 12 hours before microparticulation: paddle 75 rpm, 37° C., pH 6.8, 1.5% Tween 80; for Dissolution rate of 12 hours after microparticulation: after microparticulation (Jet mill or ball mill, no surfactant)
Procedure: Dissolution test was commonly carried out under the following condition.
as §1

[3] = Particle size of micronized particles prepared in Examples 1 to 5; assay type: physicochemical; conditions: cryptotanshinone prior to supercritical micronization
Procedure: In order to develop a supercritical micronization process, 5 g of cryptotanshinone having a particle size distribution of 1 to 100 μm and an average particle size of 30 μm, and 0.5 g of sodium lauryl sulfate were dissolved in 45 mL of methylene chloride. Thereafter, the resulting solution of cryptotanshinone in methylene chloride was injected at a flow rate of 1 to 2 mL/min via a nozzle orifice with a diameter of 1/16 inch into a reaction vessel which was set to a temperature of 30° C., 80 bar, and 2,000 rpm and was filled with liquefied carbon dioxide, whereas carbon dioxide was injected at a flow rate of 10 to 20 mL/min via a nozzle orifice with a diameter of 1/16 inch using an ISCO pump.
In order to recover precipitates of small-sized particles from the liquid carbon dioxide solution as an insoluble solvent in the reaction vessel, a volume of carbon dioxide which is 15-fold that of the reaction vessel was flowed to remove the remaining organic solvent and the pressure of the reaction vessel was reduced to recover micronized particles of cryptotanshinone. […]
Micronizing of cryptotanshinone was carried out using a Jet mill (SJ-100, Nisshin, Japan). […] Micronized particles were recovered and a particle size was determined in terms of particle diameter by […]. […]

[4] = Body weight change in DIO (diet-induced obesity) SD rats with varying dosages of micronized cryptotanshinone (Example 7); assay type: in vivo; conditions: for BW loss / Final BW: high-fat diet, Jet mill-micronized with 0.2% SLS
Procedure: Each of formulations composed of a mixture of Jet mill-micronized cryptotanshinone at 25 mg/kg, 50 mg/kg and 100 mg/kg with 0.2% (w/w) sodium lauryl sulfate was administered daily for 28 days to DIO (diet-induced obesity) SD rats in which obesity was caused by high-fat diet for 4 weeks. As a control, a surfactant SLS at a concentration of 0.2% was suspended in distilled water and a suspension was then administered to animals.

[5] = Body weight change in ob/ob mice given suspensions of cryptotanshinone powder or micronized particles (Example 6); assay type: in vivo; conditions: ob/ob male mice; 400 mg/kg PO once a day
Procedure: 1 g of a simply finely-divided powder of cryptotanshinone, and 1 g of each micronized particles of cryptotanshinone compound according to the procedures of Examples 1 to 3 were mixed with 10 mL of distilled water, and the resulting mixtures were processed in a sonicator for 30 min to prepare suspensions of the cryptotanshinone compounds. 400 mg/kg of these suspensions in terms of cryptotanshinone content was administered to ob/ob mice once a day and changes in the body weight (BW) of animals were examined.
For this purpose, 10-week-old ob/ob male mice (Jackson Lab) as an obese mouse model of type 2 diabetes were purchased from Orient Co., Ltd., Korea and were allowed to acclimate to a new environment of the breeding room for 10 days prior to experiments. Animals were fed a solid feed (P5053, Labdiet) as a laboratory animal chow. The ob/ob male mice were housed and allowed to acclimate to a new environment for 10 days, in a breeding room maintained at a temperature of 22±2° C., humidity of 55±5%, and a 12-h light/dark (L/D) cycle (light from 8:00 a.m. to 8:00 p.m.). […]

In the case of CC1CC2=C(O1)c1ccccc1C(=O)C2=O (stereo not drawn) [Compound 5], the “Particle size X50 after micronization” value [1] is reported as “X50 = 2.48 μm”, the “Particle size X90 after micronization” value [1] is reported as “X90 = 5.38 μm” and the “Particle size X50 before micronization” value [1] is reported as “X50 = 3.61 μm”. The “Particle size X90 before micronization” value [1] was “X90 = 20.09 μm”, the “Increasing rate of dissolution rate of 12 hours” value [2] was 10% and the “Change of dissolution rate of micronized particles compared to before micronization” value (“Change” for short) [2] was “increased significantly”. The “Dissolution rate of 12 hours after microparticulation” value [2] was 86.12% and the “Dissolution rate of 12 hours before microparticulation” value [2] was 78.12%.
With CC1(C)CCC2=C(O1)c1ccccc1C(=O)C2=O [Compound 1, 7,8-dihydro-2,2-dimethyl-2H-naphtho(2,3-b)dihydropyran-7,8-dione] the “Particle size X50 after micronization” value [1] was “X50 = 2.39 μm”, the “Particle size X90 after micronization” value [1] was “X90 = 5.03 μm” and the “Particle size X50 before micronization” value [1] was “X50 = 27.83 μm”. For the same compound, the “Particle size X90 before micronization” value [1] was “X90 = 33.74 μm”, the “Increasing rate of dissolution rate of 12 hours” value [2] was 42% and the “Change” value [2] was “increased significantly”. For the same compound, the “Dissolution rate of 12 hours after microparticulation” value [2] was 95.52% and the “Dissolution rate of 12 hours before microparticulation” value [2] was 67.19%.
For cryptotanshinone [Compound 58], the Average particle size [3] was 30 μm, the “Loss of body weight compared to the control group” value ([4]; 25, 50 and 100 mg/kg daily for 28 days, concentration-dependent) was “significant loss of body weight” and the BW loss ([4]; 25 mg/kg daily for 28 days) was 16.9 ± 3.8%. For the same compound, the “Final BW” value ([4]; 25 mg/kg daily for 28 days) was 589.0 ± 50.4 g, the BW loss ([4]; 50 mg/kg daily for 28 days) was 15.4 ± 3.7% and the “Final BW” value ([4]; 50 mg/kg daily for 28 days) was 578.8 ± 54.6 g. The BW loss ([4]; 100 mg/kg daily for 28 days) was 6.2 ± 5.5% and the “Final BW” value ([4]; 100 mg/kg daily for 28 days) was 529.8 ± 59.1 g.
For CC1OC2=C(C(=O)C(=O)c3c2ccc2c3CCCC2)C1(C)C (stereo not drawn) [Compound 44], the “Particle size X50 after micronization” value [1] was “X50 = 2.41 μm”, the “Particle size X90 after micronization” value [1] was “X90 = 24.57 μm” and the “Particle size X50 before micronization” value [1] was “X50 = 3.15 μm”. For the same compound, the “Particle size X90 before micronization” value [1] was “X90 = 22.41 μm”, the “Change” value [2] was “increased significantly” and the “Dissolution rate of 12 hours after microparticulation” value [2] was 41.05%. For the same compound, the “Dissolution rate of 12 hours before microparticulation” value [2] was 13.81%.
In the case of C[C@H]1COC2=C1C(=O)C(=O)c1c2ccc2c1CCCC2(C)C [Simply finely-divided cryptotanshinone, cryptotanshinone], the “Final BW” value [5] is reported as 57.5 ± 1.3 g.
In the case of Cc1cc2c(c3ccccc13)C(=O)C(=O)C1=C2OC(C)C1(C)C (stereo not drawn) [Compound 51], the “Particle size X50 after micronization” value [1] is reported as “X50 = 3.05 μm”, the “Particle size X90 after micronization” value [1] is reported as “X90 = 13.48 μm” and the “Particle size X50 before micronization” value [1] is reported as “X50 = 5.08 μm”. For the same compound, the “Particle size X90 before micronization” value [1] was “X90 = 21.97 μm”, the “Change” value [2] was “increased significantly” and the “Dissolution rate of 12 hours after microparticulation” value [2] was 51.3%. For the same compound, the “Dissolution rate of 12 hours before microparticulation” value [2] was 24.08%.

— patent US20100209513A1, “PHARMACEUTICAL COMPOSITION CONTAINING MICRONIZED PARTICLES OF NAPHTHOQUINONE-BASED COMPOUND” (priority 2007, published 2010)
